# Experimental data taken from ChEMBL document CHEMBL1201862, “PubChem BioAssay data set” (2004).
# The source made the active and inactive calls.
# Tests used:
# [1] = biological target: T1, Replicative DNA helicase DnaB (Mycobacterium tuberculosis, UniProt P9WMR3); test: DnaB intein splicing inhibitors, dose response, biochemical, cell-free fluorescence (AID 449749); format: functional
# T1 sequence (P9WMR3 whole entry): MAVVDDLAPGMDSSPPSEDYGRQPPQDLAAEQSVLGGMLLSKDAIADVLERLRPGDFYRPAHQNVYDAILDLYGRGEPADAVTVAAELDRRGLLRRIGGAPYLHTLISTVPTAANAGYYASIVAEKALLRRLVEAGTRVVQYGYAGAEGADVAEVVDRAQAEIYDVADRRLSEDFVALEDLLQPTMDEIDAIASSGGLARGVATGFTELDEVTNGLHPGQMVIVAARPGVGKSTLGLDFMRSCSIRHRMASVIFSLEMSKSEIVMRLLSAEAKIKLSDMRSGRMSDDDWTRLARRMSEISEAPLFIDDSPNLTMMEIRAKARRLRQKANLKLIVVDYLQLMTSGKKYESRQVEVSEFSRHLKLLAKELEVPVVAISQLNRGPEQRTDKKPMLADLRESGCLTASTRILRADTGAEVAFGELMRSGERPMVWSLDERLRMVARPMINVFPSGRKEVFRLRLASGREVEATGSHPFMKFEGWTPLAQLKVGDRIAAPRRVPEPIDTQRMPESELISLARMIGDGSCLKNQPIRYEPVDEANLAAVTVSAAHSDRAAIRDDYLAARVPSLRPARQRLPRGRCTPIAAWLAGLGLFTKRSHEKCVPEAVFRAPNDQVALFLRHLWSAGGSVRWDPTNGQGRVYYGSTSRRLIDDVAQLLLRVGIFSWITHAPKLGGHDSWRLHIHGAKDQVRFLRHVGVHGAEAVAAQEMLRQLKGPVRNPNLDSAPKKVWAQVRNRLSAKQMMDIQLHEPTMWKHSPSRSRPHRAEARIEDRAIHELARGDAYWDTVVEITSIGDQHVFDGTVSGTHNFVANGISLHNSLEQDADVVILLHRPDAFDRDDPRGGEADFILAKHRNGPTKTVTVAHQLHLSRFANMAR
# [2] = control 3'UTR Renilla luciferase suppression, dose response, counter-screen for Shn3 inhibitor project, cell-based, Clone20-Shn3RL, cherry-picked (AID 624133); format: functional
# [3] = biological target: T2, Rac GTPase-activating protein 1 (Homo sapiens, UniProt Q9H0H5); test: MgcRacGAP GTPase-activating activity inhibitors, confirmation, biochemical, ADP Hunter fluorescence, primary and confirmatory (AID 624330); format: functional
# T2 sequence (Q9H0H5 whole entry): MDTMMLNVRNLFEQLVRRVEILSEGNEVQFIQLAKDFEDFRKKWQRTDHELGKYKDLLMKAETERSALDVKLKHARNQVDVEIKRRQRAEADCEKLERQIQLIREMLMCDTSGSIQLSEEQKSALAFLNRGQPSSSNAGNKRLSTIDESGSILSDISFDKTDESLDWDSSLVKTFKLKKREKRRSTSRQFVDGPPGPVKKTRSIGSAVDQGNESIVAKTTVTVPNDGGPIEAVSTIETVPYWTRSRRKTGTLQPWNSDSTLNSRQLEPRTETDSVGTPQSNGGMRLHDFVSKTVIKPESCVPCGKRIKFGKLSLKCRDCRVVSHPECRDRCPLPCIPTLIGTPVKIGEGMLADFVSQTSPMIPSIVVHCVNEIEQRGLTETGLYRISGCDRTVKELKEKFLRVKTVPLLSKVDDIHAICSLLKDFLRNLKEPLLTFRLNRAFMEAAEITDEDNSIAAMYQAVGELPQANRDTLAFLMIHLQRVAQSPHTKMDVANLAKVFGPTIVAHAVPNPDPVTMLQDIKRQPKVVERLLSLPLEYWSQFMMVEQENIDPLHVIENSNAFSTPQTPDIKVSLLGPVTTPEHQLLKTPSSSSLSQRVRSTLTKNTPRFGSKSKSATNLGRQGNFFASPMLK
# [4] = inhibitors of PGC1a acetylation in cells, dose response, cell-based, cherry-picked samples (AID 720514); format: functional;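 further: potency may reflect raised or lowered acetylation signal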
# [5] = biological target: Genome polyprotein (dengue virus type 2, UniProt P29990); test: Dengue-2 NS5 methyltransferase inhibitors, primary screen, biochemical, confirmation dose response (AID 588689); format: functional
# Sequence of Genome polyprotein (P29990 2492-3391 limits assumed): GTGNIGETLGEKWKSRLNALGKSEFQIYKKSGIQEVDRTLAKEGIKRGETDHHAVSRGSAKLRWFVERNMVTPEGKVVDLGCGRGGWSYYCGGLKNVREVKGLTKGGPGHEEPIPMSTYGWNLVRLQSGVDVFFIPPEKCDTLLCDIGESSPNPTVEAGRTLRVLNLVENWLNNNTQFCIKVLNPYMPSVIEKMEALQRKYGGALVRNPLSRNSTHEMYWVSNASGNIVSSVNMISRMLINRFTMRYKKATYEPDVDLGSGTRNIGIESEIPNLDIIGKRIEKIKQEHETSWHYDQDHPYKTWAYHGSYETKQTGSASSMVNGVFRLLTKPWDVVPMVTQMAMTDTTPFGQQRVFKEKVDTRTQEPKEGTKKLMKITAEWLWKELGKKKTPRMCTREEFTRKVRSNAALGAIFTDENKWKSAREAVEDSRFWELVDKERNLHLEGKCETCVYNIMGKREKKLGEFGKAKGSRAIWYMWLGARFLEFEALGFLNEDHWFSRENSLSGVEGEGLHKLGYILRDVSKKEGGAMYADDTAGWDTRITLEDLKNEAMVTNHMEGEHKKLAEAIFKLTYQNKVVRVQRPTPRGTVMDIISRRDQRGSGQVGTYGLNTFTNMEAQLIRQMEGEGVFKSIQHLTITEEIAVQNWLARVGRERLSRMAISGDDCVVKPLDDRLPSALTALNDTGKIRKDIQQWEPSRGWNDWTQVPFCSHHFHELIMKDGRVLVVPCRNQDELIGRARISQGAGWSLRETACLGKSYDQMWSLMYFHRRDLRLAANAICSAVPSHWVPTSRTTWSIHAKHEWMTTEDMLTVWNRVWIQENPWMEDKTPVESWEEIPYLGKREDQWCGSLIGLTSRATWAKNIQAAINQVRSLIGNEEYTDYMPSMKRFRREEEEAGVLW
# [6] = biological target: T3, Protein RecA (Mycobacterium tuberculosis, UniProt P9WHJ3); test: Fluorescence Cell-Free Homogeneous Dose Retest to Identify Inhibitors of RecA-Intein Splicing Activity. [Related pubchem assays (depositor defined):AID2097, AID2223, AID489010, AID492950]; format: functional
# T3 sequence (P9WHJ3 whole entry): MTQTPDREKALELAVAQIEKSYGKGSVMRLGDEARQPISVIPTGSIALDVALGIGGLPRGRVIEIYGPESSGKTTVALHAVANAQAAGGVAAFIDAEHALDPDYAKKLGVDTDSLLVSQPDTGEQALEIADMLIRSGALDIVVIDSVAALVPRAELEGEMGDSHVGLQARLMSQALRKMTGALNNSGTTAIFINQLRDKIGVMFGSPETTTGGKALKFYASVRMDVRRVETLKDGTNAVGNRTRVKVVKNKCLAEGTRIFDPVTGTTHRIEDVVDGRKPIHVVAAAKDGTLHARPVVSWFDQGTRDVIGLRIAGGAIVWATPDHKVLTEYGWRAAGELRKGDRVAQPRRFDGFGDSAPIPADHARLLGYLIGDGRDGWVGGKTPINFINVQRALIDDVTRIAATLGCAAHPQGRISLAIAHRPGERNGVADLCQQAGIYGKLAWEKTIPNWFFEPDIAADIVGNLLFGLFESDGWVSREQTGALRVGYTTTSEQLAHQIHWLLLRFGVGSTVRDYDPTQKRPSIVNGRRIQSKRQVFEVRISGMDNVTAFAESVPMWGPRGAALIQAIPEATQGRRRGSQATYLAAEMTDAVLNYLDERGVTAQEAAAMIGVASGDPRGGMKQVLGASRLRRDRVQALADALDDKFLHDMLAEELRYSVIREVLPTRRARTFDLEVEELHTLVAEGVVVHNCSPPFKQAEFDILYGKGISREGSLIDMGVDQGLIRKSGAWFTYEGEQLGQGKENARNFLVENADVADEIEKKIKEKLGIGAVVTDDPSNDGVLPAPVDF
# [7] = HepG2 cell cytotoxicity, dose response, cytotoxicity control for Shn3 inhibitor project, CellTiter-Glo, cherry-picked (AID 624134); format: functional, cell-based
# [8] = Fluorescence-based cell-based high throughput dose response assay for inhibitors of the interaction of nucleotide-binding oligomerization domain containing 2 (NOD2) and the receptor-interacting serine-threonine kinase 2 (RIPK2).; format: functional; settings: Homo sapiens
# [9] = HeLa cell cytotoxicity, dose response, cytotoxicity control for MgcRacGAP inhibitor project (AID 624300); format: functional
# [10] = inhibitors of intracellular T. cruzi replication, confirmation, NIH3T3 host cells, beta-gal luminescence (AID 2044); format: functional, cell-based;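 further: intracellular parasites grown in NIH/3T3 mouse fibroblasts as host cells; luminescent beta-galactosidase reporter signal from transgenic T. cruzi replicating inside host cells; inhibitors lower the luminescence signal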
# [11] = Shn3 3'UTR reporter inhibitors, dose response, cell-based, Clone20 osteoblasts, firefly luciferase, cherry-picked (AID 624132); format: functional;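 further: firefly luciferase luminescence from reporter carrying the Shn3 3'UTR in osteoblasts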
# [12] = cytotoxicity toward NIH3T3 fibroblasts, dose response, counter-screen, cell-based, ATP luminescence, mouse fibroblasts (AID 2010); format: functional;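 further: cells exposed to compound for about 90 hours before reading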
# [13] = test system: BJ; test: cytotoxicity toward BJ-TERT-LT-ST fibroblasts, dose response, cell-based, RAS-independent, luminescence (AID 1935); format: functional; settings: Homo sapiens;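 further: BJ fibroblasts immortalized with TERT plus LT and ST oncogenes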
# [14] = test system: HEK293; test: NOD1 signaling inhibitors, primary screen, cell-based, luminescence, uHTS (AID 1578); format: functional; settings: Homo sapiens
# [15] = test system: BJ; test: cells; format: functional, cell-based; settings: Homo sapiens
# [16] = non-specific cell cytotoxicity, dose response, cytotoxicity control for PAX8 inhibitor project, plate reader, dry powder samples (AID 743021); format: functional, cell-based
# [17] = test system: HEK293; test: NOD2 signaling inhibitors in MDP-stimulated cells, cell-based, uHTS, luminescence (AID 2001); format: functional; settings: Homo sapiens
# [18] = test system: HEK293; test: cells; format: functional, cell-based; settings: Homo sapiens
# [19] = cytotoxicity toward DRD oncogenic fibroblasts, dose response, cell-based, non-viral oncogenic, luminescence (AID 1934); format: functional; settings: Homo sapiens
# [20] = biological target: Paired box protein Pax-8 (Homo sapiens, UniProt Q06710); test: inhibitors of PAX8-driven TPO luciferase reporter, dose response, RMG-I cells, cherry-pick (AID 687027); format: functional, cell-based;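 further: luciferase reporter driven by Pax8 target thyroperoxidase promoter measured by SteadyGlo luminescence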
# Sequence of Paired box protein Pax-8 (Q06710 whole entry): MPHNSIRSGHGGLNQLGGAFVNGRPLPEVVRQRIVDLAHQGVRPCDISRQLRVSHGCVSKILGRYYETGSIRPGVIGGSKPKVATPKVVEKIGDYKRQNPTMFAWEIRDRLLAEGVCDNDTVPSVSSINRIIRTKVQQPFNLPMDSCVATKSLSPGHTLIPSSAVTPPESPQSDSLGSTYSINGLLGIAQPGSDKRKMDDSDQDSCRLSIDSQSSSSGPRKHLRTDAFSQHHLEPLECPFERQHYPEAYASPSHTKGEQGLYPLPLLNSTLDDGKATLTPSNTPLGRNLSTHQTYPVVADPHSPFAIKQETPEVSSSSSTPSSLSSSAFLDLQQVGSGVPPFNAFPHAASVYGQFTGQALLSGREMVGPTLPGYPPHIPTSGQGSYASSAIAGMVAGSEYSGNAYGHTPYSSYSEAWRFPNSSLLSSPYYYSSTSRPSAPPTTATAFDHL
# [21] = test system: HEK293; test: cells; format: functional, cell-based; settings: Homo sapiens; remark: listed apart in the source
# [22] = test system: BJ; test: cytotoxicity toward Ras-transformed BJeLR fibroblasts, dose response, cell-based, alamar blue fluorescence, cherrypicked samples (AID 2631); format: functional; settings: Homo sapiens;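 further: confirmatory dose-response assay in RAS-dependent BJ fibroblasts engineered with TERT, LT and ST, with cytotoxicity read by fluorescence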
# [23] = cytotoxicity in HEK-293T cells, dose response, cytotoxicity control for TCR NF-kB inhibitor project, luminescence, T-cell screen hits (AID 489026); format: functional, cell-based;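 further: cells exposed to compound about 14 hours before the viability readout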
# [24] = test system: BJ; test: cytotoxicity toward BJ-TERT fibroblasts, dose response, cell-based, RAS-independent, luminescence (AID 1933); format: functional; settings: Homo sapiens
# [25] = biological target: Albumin (Bos taurus, UniProt P02769); test: Counterscreen for inhibitors of T-cell receptor (TCR)-CD3 interaction: Fluorescence-based biochemical high throughput dose response assay to identify inhibitors of T-cell receptor (TCR)-CD3 interaction using a TAMRA-labeled BSA probe.; format: functional
# Sequence of Albumin (P02769 whole entry, the tested form may be a part): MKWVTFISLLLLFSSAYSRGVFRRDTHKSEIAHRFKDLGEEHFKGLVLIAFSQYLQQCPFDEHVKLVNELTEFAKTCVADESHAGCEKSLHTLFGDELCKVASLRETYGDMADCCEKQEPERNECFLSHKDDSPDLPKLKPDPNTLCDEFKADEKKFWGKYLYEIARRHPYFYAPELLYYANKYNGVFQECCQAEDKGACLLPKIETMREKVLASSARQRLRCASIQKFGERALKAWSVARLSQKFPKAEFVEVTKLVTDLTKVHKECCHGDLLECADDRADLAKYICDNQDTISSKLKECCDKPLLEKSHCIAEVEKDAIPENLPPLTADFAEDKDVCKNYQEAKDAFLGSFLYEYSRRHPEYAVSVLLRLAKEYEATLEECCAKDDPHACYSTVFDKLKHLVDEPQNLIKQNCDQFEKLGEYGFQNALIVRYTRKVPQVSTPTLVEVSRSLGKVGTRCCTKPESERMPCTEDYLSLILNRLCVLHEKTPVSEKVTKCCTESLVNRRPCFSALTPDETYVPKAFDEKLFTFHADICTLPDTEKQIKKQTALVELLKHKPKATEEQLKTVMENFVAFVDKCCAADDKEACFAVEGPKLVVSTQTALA
# [26] = biological target: T4, RNA-binding protein pos-1 (Caenorhabditis elegans, UniProt G5EF15); test: inhibitors of POS-1/mex-3 RNA binding, dose response, biochemical, fluorescence polarization (AID 1964);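 further: purified POS-1 fused to maltose binding protein made in E. coli; potency of compounds blocking POS-1 binding to fluorescent RNA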
# T4 sequence (G5EF15 whole entry): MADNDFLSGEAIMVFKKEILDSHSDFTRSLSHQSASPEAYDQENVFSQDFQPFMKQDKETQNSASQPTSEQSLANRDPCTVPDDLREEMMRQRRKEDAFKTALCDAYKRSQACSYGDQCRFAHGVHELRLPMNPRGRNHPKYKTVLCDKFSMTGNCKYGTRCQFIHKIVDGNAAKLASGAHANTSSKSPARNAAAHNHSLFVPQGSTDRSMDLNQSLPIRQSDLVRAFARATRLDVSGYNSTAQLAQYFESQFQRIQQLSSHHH
# [27] = biological target: T5, Zinc finger protein mex-5 (Caenorhabditis elegans, UniProt Q9XUB2); test: MEX-5/TCR-2 RNA interaction inhibitors, dose response, biochemical, C. elegans, fluorescence polarization (AID 1960)
# T5 sequence (Q9XUB2 whole entry): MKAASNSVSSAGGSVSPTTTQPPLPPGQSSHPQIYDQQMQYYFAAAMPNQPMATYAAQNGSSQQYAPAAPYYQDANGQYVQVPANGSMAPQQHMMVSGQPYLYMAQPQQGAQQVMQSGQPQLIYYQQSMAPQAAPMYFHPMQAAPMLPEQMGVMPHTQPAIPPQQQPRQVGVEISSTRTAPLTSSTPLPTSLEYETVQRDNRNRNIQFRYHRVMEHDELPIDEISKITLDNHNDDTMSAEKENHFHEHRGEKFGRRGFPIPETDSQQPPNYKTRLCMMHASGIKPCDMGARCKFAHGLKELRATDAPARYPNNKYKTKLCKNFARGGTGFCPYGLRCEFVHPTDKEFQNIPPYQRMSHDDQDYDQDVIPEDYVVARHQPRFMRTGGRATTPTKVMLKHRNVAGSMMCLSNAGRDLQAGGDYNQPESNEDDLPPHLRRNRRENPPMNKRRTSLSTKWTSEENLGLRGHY
# [28] = A549 cell cytotoxicity, dose response, cytotoxicity control, plate reader, cherry-pick, antagonist series (AID 743412); format: functional, cell-based
# [29] = MC4R antagonists, dose response, counter-screen for LGR2 antagonist project, cell-based, plate reader, cherry pick (AID 743444); format: functional;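 further: transfected HEK 293 cells stimulated with alpha-MSH peptide; potency of inhibitors of the alpha-MSH evoked signal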
# [30] = LGR2 antagonists, dose response, cell-based, HEK293, CRE-luciferase reporter, cherry pick, set 2 (AID 743343); format: functional;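 further: transfected cells were stimulated with diluted bursicon conditioned medium after compound addition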
# [31] = HepG2 cell cytotoxicity, dose response, cytotoxicity control, plate reader, cherry-pick, antagonist series (AID 743416); format: functional, cell-based
# [32] = ADAM10 protease inhibitors, dose response, selectivity assay for ADAM17 exosite inhibitor project, biochemical, FRET peptide substrate, recombinant human ADAM10 (AID 743259);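 further: ADAM10 enzyme cleaving a FRET peptide substrate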
# [33] = biological target: Disintegrin and metalloproteinase domain-containing protein 17 (Homo sapiens, UniProt P78536); test: exosite inhibitors of ADAM17, dose response, biochemical (AID 743260)
# Sequence of Disintegrin and metalloproteinase domain-containing protein 17 (P78536 whole entry, the tested form may be a part): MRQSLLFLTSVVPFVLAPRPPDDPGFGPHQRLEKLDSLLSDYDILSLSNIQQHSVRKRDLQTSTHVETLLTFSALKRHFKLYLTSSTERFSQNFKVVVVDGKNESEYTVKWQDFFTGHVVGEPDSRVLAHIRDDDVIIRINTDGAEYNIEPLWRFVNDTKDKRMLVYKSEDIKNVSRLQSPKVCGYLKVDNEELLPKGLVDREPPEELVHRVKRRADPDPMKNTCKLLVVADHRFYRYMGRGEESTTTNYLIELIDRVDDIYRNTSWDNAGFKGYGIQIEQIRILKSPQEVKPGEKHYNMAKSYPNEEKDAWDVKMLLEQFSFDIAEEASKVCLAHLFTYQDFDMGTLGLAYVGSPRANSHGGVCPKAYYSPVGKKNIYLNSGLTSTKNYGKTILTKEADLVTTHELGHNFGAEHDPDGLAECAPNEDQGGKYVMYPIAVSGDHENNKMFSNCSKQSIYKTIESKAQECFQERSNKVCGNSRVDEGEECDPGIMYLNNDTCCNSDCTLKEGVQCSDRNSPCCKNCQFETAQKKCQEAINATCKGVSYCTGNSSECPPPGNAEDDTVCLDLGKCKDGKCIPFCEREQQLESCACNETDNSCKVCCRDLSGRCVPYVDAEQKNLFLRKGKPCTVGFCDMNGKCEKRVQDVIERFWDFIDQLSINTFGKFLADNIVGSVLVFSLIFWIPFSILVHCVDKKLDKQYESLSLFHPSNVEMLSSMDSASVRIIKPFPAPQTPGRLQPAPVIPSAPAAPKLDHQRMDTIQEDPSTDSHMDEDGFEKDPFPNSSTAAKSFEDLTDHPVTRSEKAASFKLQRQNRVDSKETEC
compound,measurement,setting,value
O=C(Nc1ccccc1)C1=C(c2ccccc2)S(=O)(=O)CCS1(=O)=O,AC50,[1],1.42 µM (active)
same,AC50,[2],10.3 µM (active)
same,IC50,[3],123 µM (active)
same,AC50,[4],8.27 µM (active)
same,IC50,[5],> 100 µM (active)
same,EC50,[6],0.682 µM (active)
same,AC50,[7],15.4 µM (active)
same,IC50,[8],3.59 µM (active)
same,CC50,[9],71.9 µM (active)
same,EC50,[10],1.31 µM (active)
same,AC50,[11],1.37 µM (active)
same,EC50,[12],2.06 µM (active)
COc1ccc(C(C(=O)NC2CCCCC2)N(C(=O)CCl)c2ccc(C)cc2)cc1 (centres undefined),EC50,[13],6.27 µM (active)
same,EC50,[14],15.6 µM (active)
same,EC50,[15],2.63 µM (active)
same,AC50,[16],0.827 µM (active)
same,IC50,[17],7.21 µM (active)
same,IC50,[18],17.5 µM (active)
same,EC50,[19],0.748 µM (active)
same,AC50,[20],0.533 µM (active)
same,IC50,[21],5.75 µM (active)
same,EC50,[22],9.18 µM (active)
same,IC50,[23],> 80 µM (inactive)
same,EC50,[24],0.84 µM (inconclusive)
CCC(=O)Nc1ccc2nc3c(O)nc(S)nc3nc2c1,IC50,[25],> 94.1 µM (inactive)
same,IC50,[5],39.4 µM (active)
same,EC50,[26],20.9 µM (active)
same,EC50,[27],12.3 µM (active)
O=C(Nc1ccc2c(c1)OCCO2)c1ccc(Cl)cc1Cl,AC50,[28],> 52 µM (inactive)
same,AC50,[29],15.2 µM (active)
same,AC50,[30],11.6 µM (active)
same,AC50,[31],> 52 µM (inactive)
CCN1C(=O)/C(=C/c2ccc(C)s2)NC1=S,IC50,[32],> 69.5 µM (inactive)
same,IC50,[33],> 69.5 µM (inactive)
